These results are taken from patent US11229633B2, “Arimoclomol formulation” (Orphazyme A/S, priority 2014, dated 2022).

Entries after “also recorded” stand apart in the source; their conditions may differ.

For data set [1], the target named is T1, human OAT1 (Homo sapiens, UniProt Q4U2R8).
T1 construct: expressed in transfected cells; host or cells: CHO (protocol UPT-CHO-OAT1-Tenofovir; control: parental CHO-K1)
T1 sequence (Q4U2R8 1-563): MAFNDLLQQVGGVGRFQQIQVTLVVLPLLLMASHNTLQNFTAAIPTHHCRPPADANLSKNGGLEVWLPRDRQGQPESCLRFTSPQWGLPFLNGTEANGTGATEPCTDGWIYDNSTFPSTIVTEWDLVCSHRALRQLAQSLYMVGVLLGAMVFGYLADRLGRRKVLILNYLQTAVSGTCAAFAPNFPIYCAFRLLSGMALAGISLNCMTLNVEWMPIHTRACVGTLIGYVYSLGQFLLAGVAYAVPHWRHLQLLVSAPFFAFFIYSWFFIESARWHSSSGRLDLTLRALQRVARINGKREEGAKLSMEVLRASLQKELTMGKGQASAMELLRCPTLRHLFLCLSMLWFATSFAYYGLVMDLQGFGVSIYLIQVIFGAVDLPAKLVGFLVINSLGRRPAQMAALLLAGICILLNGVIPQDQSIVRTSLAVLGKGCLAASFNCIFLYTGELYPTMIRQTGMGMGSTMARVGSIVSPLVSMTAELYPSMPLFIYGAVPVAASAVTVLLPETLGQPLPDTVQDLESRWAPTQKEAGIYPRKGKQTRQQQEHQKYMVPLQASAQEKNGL
Kind of data set: Uptake transporter inhibition assay, OAT1. To be noted: for maximum inhibition: 0.3-300 μM. In kind it is in vitro ADME. The arrangement: key to maximum inhibition: NIO: No interaction observed. On the procedure: (§1) Uptake experiments were performed using CHO, MDCKII, or HEK293 cells stably expressing the respective uptake transporters.
Cells were cultured at 37±1° C. in an atmosphere of 95:5 air:CO2 and were plated onto standard 96-well tissue culture plates at the cell number described in table 4.
Before the experiment, the medium was removed and the cells were washed twice with 100 μl of HK buffer at pH 7.4 (prepared from Sigma chemicals, Sigma-Aldrich, St Louis, Mo.). Uptake experiments were carried out at 37±1° C. in 50 μl of HK buffer (pH 7.4) containing the probe substrate and the TA or vehicle control (water).
After the experiment, cells were washed twice with ice cold, 100 μl of HK buffer and lysed with 50 μl of 0.1 M NaOH (1 mM CaCl2) in 5% SDS in the case of OATP1B3). Fluo-3 transport (OATP1B3) was determined by measuring fluorescence using 485 nm and 520 nm as the excitation and emission wavelengths, respectively. Radiolabelled probe substrate transport was determined by measuring an aliquot (35 μl) from each well for liquid scintillation counting.
Uptake of the probe substrate in control cells provided background activity values for all data points. Incubation without TA or reference inhibitor (solvent only) provided 100% activity values. A reference inhibitor served as positive control for inhibition.
The amount of translocated probe substrate was determined for each well in cpm or RFU. Relative activities were calculated from the equation:
[formula] A: amount of translocated substrate in the presence of TA in transfected cells B: amount of translocated substrate in the presence of TA in control cells C: amount of translocated substrate in the presence of solvent in transfected cells D: amount of translocated substrate in the presence of solvent in control cells Calculation of Fold Accumulation Values
In uptake transporter inhibition assays, the IC50 (μM) was calculated, where applicable. […]

Data set [2] addresses T2, human OAT3 (Homo sapiens, UniProt Q8TCC7).
T2 construct: expressed in transfected cells; host or cells: MDCKII (protocol UPT-MDCKII-OAT3-E3S; control: parental MDCKII)
T2 sequence (Q8TCC7 1-542): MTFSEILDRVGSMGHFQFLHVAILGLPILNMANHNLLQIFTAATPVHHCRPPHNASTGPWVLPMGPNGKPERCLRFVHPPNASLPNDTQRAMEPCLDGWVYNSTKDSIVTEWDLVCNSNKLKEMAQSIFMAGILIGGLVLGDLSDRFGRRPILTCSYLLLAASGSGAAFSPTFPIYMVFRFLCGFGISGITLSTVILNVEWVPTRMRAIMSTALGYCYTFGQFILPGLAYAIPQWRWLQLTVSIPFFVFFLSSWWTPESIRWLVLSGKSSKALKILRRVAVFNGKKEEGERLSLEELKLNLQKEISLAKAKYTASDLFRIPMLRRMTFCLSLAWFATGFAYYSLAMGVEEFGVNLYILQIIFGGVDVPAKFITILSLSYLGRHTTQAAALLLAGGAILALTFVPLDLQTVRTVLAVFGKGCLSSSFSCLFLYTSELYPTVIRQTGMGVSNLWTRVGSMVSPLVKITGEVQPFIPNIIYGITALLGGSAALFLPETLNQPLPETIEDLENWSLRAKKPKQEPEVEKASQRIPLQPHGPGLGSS
Kind of data set: Uptake transporter substrate feasibility assay, OAT3. More on the design: key to Substrate: NIO: No interaction observed. It counts as in vitro ADME. On the procedure: as §1
Cells were cultured at 37±1° C. in an atmosphere of 95:5 air:CO2 as described in Table 4 and were plated onto standard 24-well tissue culture plates at 2×10^5 cells/well. The uptake of the TA was determined using cells overexpressing the respective uptake transporter and control cells, at two incubation time points (2 and 20 min) and at two concentrations (1 and 10 μM) of TA to determine whether or not the TA was actively taken up into the cells.
Before the experiment, the medium was removed and the cells were washed twice with 300 μl of HK buffer (pH 7.4) (prepared from Sigma chemicals). Cellular uptake of TA into the cells was measured by adding 300 μl of HK buffer containing TA and incubating them at 37±1° C. Reactions were quenched by removing the HK buffer containing the TA and the cells were washed twice with 300 μl of HK buffer. Cells were lysed by adding 300 μl of MeOH:H2O (2:1) and incubated for 20 minutes at 4±1° C. The amount of TA in the cell lysate was determined by LC-MS/MS. The amount of protein in each well was quantified using the BCA kit for protein determination (Sigma-Aldrich, St Louis, Mo., USA). Uptake of the probe substrate in control cells provided background activity values for all data points. Incubation without reference inhibitor (solvent only) provided 100% activity values. A reference inhibitor served as positive control for inhibition.
The fold accumulation value was defined as the ratio of uptake of TA or probe substrate into transfected and control cells:
[formula] UPTTRP: accumulated amount of TA or probe substrate in transfected cells normalized by protein content [pmol/mg protein] UPTCTL: accumulated amount of TA or probe substrate in control cells normalized by protein content [pmol/mg protein]
If the fold accumulation is >2 and can be inhibited by a known inhibitor of the transporter, the TA can be considered to be a substrate of the respective transporter.

For data set [3] the following is noted: in vivo; cited from earlier work.

For the compound `[O-][n+]1cccc(C(Cl)=NOCC(O)CN2CCCCC2)c1` (centres unmarked) [Arimoclomol, N-[2-hydroxy-3-(1-piperidinyl)-propoxy]-pyridine-1-oxide-3-carboximidoyl chloride], the maximum inhibition result in data set [1] (Table 2) and in data set [1] (Table 5) was “NIO” each time. In addition, the “Influence on OAT1-mediated probe substrate accumulation (in words)” value in data set [1] (applied concentrations) was “did not influence; also recorded: not an inhibitor”. Also, the “Substrate of the transporter (in words)” value in data set [2] is reported as “not a substrate”. Moreover, the Fold accumulation in data set [2] (1 μM, 2 min) was 0.86; in data set [2] (1 μM, 20 min), 0.86; in data set [2] (10 μM, 2 min), 0.85; in data set [2] (10 μM, 20 min) it was 0.82; in data set [2] (1 and 10 μM, 2 and 20 min), below 2. The Substrate result in data set [2] (Table 2) is listed as “NIO”. Also, in data set [3], the plasma half-life was 2 to 4 h.
